# What was measured:
# PARP = molecular target: T1, PARP (Homo sapiens, UniProt P09874); test: PARP ELISA (ELISA-based colorimetric PARP/Apoptosis Assay kit, Trevigen); type: biochemical; settings: pIC50=-log10 IC50, IC50 in mol/L; inhibition of PARP catalytic activity
# T1 construct: purchased Trevigen 4684-096-K HT (kit); 4684-096-01 (PARP enzyme)
# How it was run: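 Quenched after 10 min catalysis by aspiration and four PBS/0.1% Triton X-100 washes. Poly(ADP-ribose) detected with mouse anti-PAR monoclonal antibody, goat anti-mouse IgG-HRP and HRP substrate; colorimetric signal proportional to PARP catalytic activity.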
# Jurkat cell line = test: PARP cellular chemopotentiation assay (MTS, with/without TMZ); type: cell-based; settings: Chemopotentiation factor: ratio of EC50 values of Jurkat cells co-treated without and with 100 μM TMZ; 96 hours
# Procedure: Potentiation Factor (PF50) Determination from PARP Cellular Chemopotentiation Assay
# Jurkat cell line was maintained according to the supplier (American Type Culture Collection (Rockville, Md.)). Cells were seeded in 96-well tissue culture microplates at 10,000 cells per well and cultured for 24 hours prior to addition of compounds, TMZ (Temozolomide) or DMSO (dimethylsulfoxide) vehicle. After 96 hours of treatment, the conversion of MTS ([3-(4,5-dimethylthiazol-2-yl)-5-(3-carboxymethoxyphenyl)-2-(4-sulfophenyl)-2H-tetrazolium, inner salt], Promega, Madison, Wis.) by metabolically active cells was determined through measuring the OD490 nm with a Spectramax microplate reader (Molecular Devices, San Diego, Calif.). To generate concentration-response curves, cells were treated in duplicate with a range of serial compound dilutions (final DMSO concentration was 0.5%) in the absence or presence of 100 μM TMZ chemoreagent. The percentage of viable cells per well was calculated by correction for background and normalizing against DMSO-treated cells. EC50 values for inhibition of cell viability were calculated using XLfit4 MicroSoft Excel curve-fitting software. Chemopotentiation factor PF50 was calculated as the ratio of EC50 values of cells co-treated without and with TMZ, respectively.
# T1 sequence (P09874 whole entry): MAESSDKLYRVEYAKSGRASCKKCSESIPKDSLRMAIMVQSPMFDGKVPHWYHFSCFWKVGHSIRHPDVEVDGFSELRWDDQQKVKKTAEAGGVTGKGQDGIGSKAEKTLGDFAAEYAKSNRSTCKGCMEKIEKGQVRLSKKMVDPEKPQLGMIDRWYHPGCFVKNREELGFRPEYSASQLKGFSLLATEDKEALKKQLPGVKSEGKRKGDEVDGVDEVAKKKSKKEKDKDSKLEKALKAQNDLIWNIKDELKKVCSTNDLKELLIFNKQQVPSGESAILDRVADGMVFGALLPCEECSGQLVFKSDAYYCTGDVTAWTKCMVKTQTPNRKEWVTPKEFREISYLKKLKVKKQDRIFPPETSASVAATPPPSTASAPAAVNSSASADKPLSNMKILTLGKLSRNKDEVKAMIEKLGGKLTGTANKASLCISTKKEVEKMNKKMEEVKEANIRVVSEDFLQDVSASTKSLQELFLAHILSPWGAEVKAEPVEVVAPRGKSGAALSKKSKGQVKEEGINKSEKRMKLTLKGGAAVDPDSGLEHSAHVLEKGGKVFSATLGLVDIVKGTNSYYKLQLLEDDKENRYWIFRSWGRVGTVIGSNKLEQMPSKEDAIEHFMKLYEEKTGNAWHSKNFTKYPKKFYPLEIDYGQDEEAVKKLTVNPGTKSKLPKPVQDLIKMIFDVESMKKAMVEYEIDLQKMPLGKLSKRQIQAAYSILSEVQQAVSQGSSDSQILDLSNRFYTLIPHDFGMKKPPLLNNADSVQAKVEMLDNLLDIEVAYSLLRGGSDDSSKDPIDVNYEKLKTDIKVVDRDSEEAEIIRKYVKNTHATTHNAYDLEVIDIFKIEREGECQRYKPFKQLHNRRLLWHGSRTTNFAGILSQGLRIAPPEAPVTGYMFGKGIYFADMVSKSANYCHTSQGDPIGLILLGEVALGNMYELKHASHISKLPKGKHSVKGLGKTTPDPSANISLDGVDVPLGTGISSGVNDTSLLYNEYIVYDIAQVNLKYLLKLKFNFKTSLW
smiles,measurement,setting,value
"COc1cc(CN2CCN(c3ccc(C(=O)NC4CC4)cc3Cl)CC2)cc2c1OC(C)C(=O)N2 (stereo not drawn) [Compound 373, 3-Chloro-N-cyclopropyl-4-(4-((8-methoxy-2-methyl-3-oxo-3,4-dihydro-2H-benzo[b][1,4]oxazin-6-yl)methyl)piperazin-1-yl)benzamide]",IC50,PARP,20 nM
same,PF50,Jurkat cell line,3.2
"CNC(=O)c1ccc(N2CCN(Cc3cc4c(c(OC)c3)OC(C)C(=O)N4)CC2)c(F)c1 (stereo not drawn) [Compound 365, 3-Fluoro-4-(4-((8-methoxy-2-methyl-3-oxo-3,4-dihydro-2H-benzo[b][1,4]oxazin-6-yl)methyl)piperazin-1-yl)-N-methylbenzamide]",IC50,PARP,31.6 nM
same,PF50,Jurkat cell line,1.3
"CNC(=O)c1ccc(N2CCN(Cc3cc(C)c4c(c3)NC(=O)C(C)O4)CC2)c(F)c1 (stereo not drawn) [Compound 380, 4-(4-((2,8-Dimethyl-3-oxo-3,4-dihydro-2H-benzo[b][1,4]oxazin-6-yl)methyl)piperazin-1-yl)-3-fluoro-N-methylbenzamide]",IC50,PARP,50.1 nM
same,PF50,Jurkat cell line,4.0
"CNC(=O)c1ccc(N2CCN(Cc3cc(F)c4c(c3)NC(=O)C(C)O4)CC2)nc1 (stereo not drawn) [Compound 314, 6-(4-((8-Fluoro-2-methyl-3-oxo-3,4-dihydro-2H-benzo[b][1,4]oxazin-6-yl)methyl)piperazin-1-yl)-N-methylnicotinamide]",IC50,PARP,31.6 nM
same,PF50,Jurkat cell line,1.8
"CNC(=O)c1ccc(N2CCN(Cc3cc4c(c(OC)c3)OC(C)C(=O)N4)CC2)c(C)c1 (stereo not drawn) [Compound 362, 4-(4-((8-Methoxy-2-methyl-3-oxo-3,4-dihydro-2H-benzo[b][1,4]oxazin-6-yl)methyl)piperazin-1-yl)-N,3-dimethylbenzamide]",IC50,PARP,31.6 nM
same,PF50,Jurkat cell line,>1700
"CCNC(=O)c1ccc(N2CCN(Cc3cc(C)c4c(c3)NC(=O)C(C)O4)CC2)c(C)c1 (stereo not drawn) [Compound 385, 4-(4-((2,8-Dimethyl-3-oxo-3,4-dihydro-2H-benzo[b][1,4]oxazin-6-yl)methyl)piperazin-1-yl)-N-ethyl-3-methylbenzamide]",IC50,PARP,50.1 nM
same,PF50,Jurkat cell line,5.9
"CCOC(=O)c1ccc(N2CCN(Cc3cc(Cl)c4c(c3)NC(=O)C(C)O4)CC2)cc1 (stereo not drawn) [Compound 306, Ethyl 4-(4-((8-chloro-2-methyl-3-oxo-3,4-dihydro-2H-benzo[b][1,4]oxazin-6-yl)methyl)piperazin-1-yl)benzoate]",IC50,PARP,79.4 nM
same,PF50,Jurkat cell line,1.3
"CNC(=O)c1ccc(N2CCN(Cc3cc4c(c(OC(F)F)c3)OC(C)C(=O)N4)CC2)cc1 (stereo not drawn) [Compound 403, 4-(4-((8-(Difluoromethoxy)-2-methyl-3-oxo-3,4-dihydro-2H-benzo[b][1,4]oxazin-6-yl)methyl)piperazin-1-yl)-N-methylbenzamide]",IC50,PARP,63.1 nM
same,PF50,Jurkat cell line,>2.0
"CCNC(=O)c1ccc(N2CCN(Cc3cc(Cl)c4c(c3)NC(=O)C(C)O4)CC2)cc1 (stereo not drawn) [Compound 309, 4-(4-((8-Chloro-2-methyl-3-oxo-3,4-dihydro-2H-benzo[b][1,4]oxazin-6-yl)methyl)piperazin-1-yl)-N-ethylbenzamide]",IC50,PARP,5.01 nM
same,PF50,Jurkat cell line,5.2
"CCNC(=O)c1ccc(N2CCN(Cc3cc4c(c(OC)c3)OCC(=O)N4)CC2)c(Cl)c1 [Compound 370, 3-Chloro-N-ethyl-4-(4-((8-methoxy-3-oxo-3,4-dihydro-2H-benzo[b][1,4]oxazin-6-yl)methyl)piperazin-1-yl)benzamide]",IC50,PARP,79.4 nM
same,PF50,Jurkat cell line,5.0
"CCNC(=O)c1ccc(N2CCN(Cc3cc4c(c(OCC)c3)OC(C)C(=O)N4)CC2)c(Cl)c1 (stereo not drawn) [Compound 399, 3-Chloro-4-(4-((8-ethoxy-2-methyl-3-oxo-3,4-dihydro-2H-benzo[b][1,4]oxazin-6-yl)methyl)piperazin-1-yl)-N-ethylbenzamide]",IC50,PARP,63.1 nM
same,PF50,Jurkat cell line,>4.0
"Cc1cc(C(=O)NC2CC2)ccc1N1CCN(Cc2cc(C)c3c(c2)NC(=O)C(C)O3)CC1 (stereo not drawn) [Compound 386, N-Cyclopropyl-4-(4-((2,8-dimethyl-3-oxo-3,4-dihydro-2H-benzo[b][1,4]oxazin-6-yl)methyl)piperazin-1-yl)-3-methylbenzamide]",IC50,PARP,50.1 nM
same,PF50,Jurkat cell line,>5.0
"CCNC(=O)c1ccc(N2CCN(Cc3cc(Cc4ccccc4)c4c(c3)NC(=O)C(C)O4)CC2)cc1 (stereo not drawn) [Compound 355, 4-(4-((8-Benzyl-2-methyl-3-oxo-3,4-dihydro-2H-benzo[b][1,4]oxazin-6-yl)methyl)piperazin-1-yl)-N-ethylbenzamide]",IC50,PARP,> 200 nM
same,PF50,Jurkat cell line,1.3
"CC1Oc2ccc(CN3CCN(c4ccc(C(=O)N5CCCC5)cc4)CC3)cc2NC1=O (stereo not drawn) [Compound 377, 2-Methyl-6-((4-(4-(pyrrolidine-1-carbonyl)phenyl)piperazin-1-yl)methyl)-2H-benzo[b][1,4]oxazin-3(4H)-one]",IC50,PARP,> 200 nM
same,PF50,Jurkat cell line,1.0
"CC1Oc2c(Cl)cc(CN3CC=C(c4ccc(Cl)cc4)CC3)cc2NC1=O (stereo not drawn) [Compound 166, 8-Chloro-6-((4-(4-chlorophenyl)-5,6-dihydropyridin-1(2H)-yl)methyl)-2-methyl-2H-benzo[b][1,4]oxazin-3(4H)-one]",IC50,PARP,≥ 126 nM
same,PF50,Jurkat cell line,1.0-1.9
"CC1Oc2c(cc(CN3CCN(c4ccc(C(=O)NC5CC5)cc4)CC3)cc2-c2ccccc2)NC1=O (stereo not drawn) [Compound 351, N-Cyclopropyl-4-(4-((2-methyl-3-oxo-8-phenyl-3,4-dihydro-2H-benzo[b][1,4]oxazin-6-yl)methyl)piperazin-1-yl)benzamide]",IC50,PARP,> 200 nM
same,PF50,Jurkat cell line,1.0
"CCNC(=O)c1ccc(N2CCN(Cc3cc4c(cc3F)OC(C)C(=O)N4)CC2)cc1 (stereo not drawn) [Compound 336, N-Ethyl-4-(4-((7-fluoro-2-methyl-3-oxo-3,4-dihydro-2H-benzo[b][1,4]oxazin-6-yl)methyl)piperazin-1-yl)benzamide]",IC50,PARP,100 nM
same,PF50,Jurkat cell line,2.1
"CC1Oc2ccc(CC3CCN(c4ccccc4)CC3)cc2NC1=O (stereo not drawn) [Compound 389, 2-Methyl-6-((1-phenylpiperidin-4-yl)methyl)-2H-benzo[b][1,4]oxazin-3(4H)-one]",IC50,PARP,> 200 nM
same,PF50,Jurkat cell line,1.1
"CC1Oc2ccc(Cn3ncc4ccccc43)cc2NC1=O (stereo not drawn) [Compound 345, 6-((1H-Indazol-1-yl)methyl)-2-methyl-2H-benzo[b][1,4]oxazin-3(4H)-one]",IC50,PARP,79.4 nM
same,PF50,Jurkat cell line,1.2
"CCOc1cc(CN2CCN(c3ccc(C(=O)NC)cc3C)CC2)cc2c1OC(C)C(=O)N2 (stereo not drawn) [Compound 400, 4-(4-((8-Ethoxy-2-methyl-3-oxo-3,4-dihydro-2H-benzo[b][1,4]oxazin-6-yl)methyl)piperazin-1-yl)-N,3-dimethylbenzamide]",IC50,PARP,31.6 nM
same,PF50,Jurkat cell line,1211
"CNC(=O)c1ccc(N2CCC(Cc3ccc4c(c3)NC(=O)C(C)O4)CC2)cc1 (stereo not drawn) [Compound 390, N-Methyl-4-(4-((2-methyl-3-oxo-3,4-dihydro-2H-benzo[b][1,4]oxazin-6-yl)methyl)piperidin-1-yl)benzamide]",IC50,PARP,> 200 nM
same,PF50,Jurkat cell line,1.0
"CCNC(=O)c1ccc(N2CCN(Cc3cc(C)c4c(c3)NC(=O)C(C)O4)CC2)c(F)c1 (stereo not drawn) [Compound 381, 4-(4-((2,8-Dimethyl-3-oxo-3,4-dihydro-2H-benzo[b][1,4]oxazin-6-yl)methyl)piperazin-1-yl)-N-ethyl-3-fluorobenzamide]",IC50,PARP,39.8 nM
same,PF50,Jurkat cell line,>2
"CNC(=O)c1ccc(N2CCN(Cc3cc(Cc4ccccc4)c4c(c3)NC(=O)C(C)O4)CC2)cc1 (stereo not drawn) [Compound 353, 4-(4-((8-Benzyl-2-methyl-3-oxo-3,4-dihydro-2H-benzo[b][1,4]oxazin-6-yl)methyl)piperazin-1-yl)-N-methylbenzamide]",IC50,PARP,> 200 nM
same,PF50,Jurkat cell line,1.3
"CCNC(=O)c1ccc(N2CCN(Cc3cc4c(c(OC(F)F)c3)OC(C)C(=O)N4)CC2)cc1 (stereo not drawn) [Compound 404, 4-(4-((8-(Difluoromethoxy)-2-methyl-3-oxo-3,4-dihydro-2H-benzo[b][1,4]oxazin-6-yl)methyl)piperazin-1-yl)-N-ethylbenzamide]",IC50,PARP,31.6 nM
same,PF50,Jurkat cell line,>2.0
"CC1Oc2c(Cl)cc(CN3CCN(c4ccc(Cl)cc4)CC3)cc2NC1=O (stereo not drawn) [Compound 167, 8-Chloro-6-((4-(4-chlorophenyl)piperazin-1-yl)methyl)-2-methyl-2H-benzo[b][1,4]oxazin-3(4H)-one]",IC50,PARP,39.8 to 100 nM
same,PF50,Jurkat cell line,≦0.9
"CNC(=O)c1ccc(N2CCN(Cc3cc4c(c(-c5ccccc5)c3)OC(C)C(=O)N4)CC2)cc1 (stereo not drawn) [Compound 350, N-Methyl-4-(4-((2-methyl-3-oxo-8-phenyl-3,4-dihydro-2H-benzo[b][1,4]oxazin-6-yl)methyl)piperazin-1-yl)benzamide]",IC50,PARP,> 200 nM
same,PF50,Jurkat cell line,2.1
"CC1Oc2ccc(CN3CCN(c4ccc(C(=O)NCC5CC5)cc4)CC3)cc2NC1=O (stereo not drawn) [Compound 226, N-(Cyclopropylmethyl)-4-(4-((2-methyl-3-oxo-3,4-dihydro-2H-benzo[b][1,4]oxazin-6-yl)methyl)piperazin-1-yl)benzamide]",IC50,PARP,39.8 to 100 nM
same,PF50,Jurkat cell line,≦0.9

# Reference: patent US8669249B2, “Poly (ADP-ribose) polymerase (PARP) inhibitors” (Takeda Pharmaceutical Company Limited, priority 2009, dated 2014)
